Data reported in publication PMC2071910 (Respiratory Research, 2007).
Like-named read-outs stand apart in the source and are kept apart here. Each block holds one compound with its values, some of them ahead of it.

Columns and labels:
[1] = In vitro metabolism in human lung precision-cut tissue slices, HPLC with UV detection; format: in vitro ADME; conditions: for Share of BDP-related material in tissue / Share of BDP-related material in medium: incubation of BDP 25 μM; for Share of BDP-related material in tissue: lung tissue extract; for Total amount in human lung tissue slices: Parent compound / Relative drug amount in human lung tissue slices: Parent compound: tissue extract; for Total amount in human lung tissue slices: Parent compound / Relative drug amount in human lung tissue slices: Parent compound / Relative drug amount in medium: Parent compound: mean ± SD n = 9; for Metabolites detected in incubation medium: incubation medium, 2, 6 and 24 h; for Relative drug amount in medium: Parent compound: incubation medium, initial 25 μM
Method: Lung slices were prepared at Vitron, Inc. (Tucson, AZ, USA) as previously described. In brief, the lungs were inflated with 2 to 4 L of 0.5% agar/Waymouth's medium mixture at 37°C and were stored at 4°C for 30 to 60 min. Each lung was cut into 2 cm thick slabs, placed on dental wax, and tissue cylinders of 8 mm diameter were prepared using a cordless coring tool. 400 μm thick slices were cut from the cylinders using a Brendel-Vitron tissue slicer.
Three lung slices from each donor were floated onto titanium roller inserts, blotted, and loaded horizontally into glass scintillation vials containing 1.7 mL of Waymouth's MB752/1 tissue culture medium fortified with 10% fetal calf serum, 0.35 g/L L-glutamine, 10 mL/L Fungi-Bact, and 84 μg/mL gentamicin sulfate.
Three vials were used per substrate and time point. A stock solution of the substrate was added prior to dispensing the media into vials. The final substrate concentration was 25 μM. The vials were closed with caps that had central 2-mm holes, placed in a Dynamic Organ Culture incubator (Vitron, Inc., Tucson, AZ, USA) at 37°C, and exposed to 95% O2 and 5% CO2. The human tissue slices were incubated for 2, 6, and 24 h, and cellular viability of human lung slices was assessed using separate incubation samples (see assessment of cellular viability). Slices and media from each vial were harvested separately into separate tubes and stored at -80°C. Metabolism samples containing either tissue or media were shipped on dry ice from Vitron, Inc. to ALTANA Pharma AG for analysis.
The volume of medium was measured at the end of the incubation period. Samples of the incubation medium were prepared by mixing 60 μL of medium with 60 μL of solution for precipitation (0.2 M ZnSO4/ACN, 1:1). Following centrifugation for 5 min (1,000 × g Model5414, Eppendorf) at room temperature, the supernatant was assayed by high performance liquid chromatography (HPLC). Tissue samples were homogenized in 1 mL of methanol using ultrasonic treatment (Branson Sonifier 250; Branson Ultrasonics Corporation, Danbury, Conn) and were centrifuged for 5 min (1,000 × g Model5414, Eppendorf) at room temperature. After centrifugation, 333 μL of the supernatant was dried under a gentle stream of nitrogen at 45°C and resuspended in 75 μL of methanol before analysis.
HPLC analysis was performed using a Hewlett-Packard HP1090 liquid chromatograph (Agilent Technologies Deutschland GmbH, Waldbronn, Germany) with an ultraviolet (UV) detector monitoring at 242 nm. Separation was achieved using a Hypersil MOS column (125 × 4 mm, 5 μm) (Thermo Electron Corp., Dreieich, Germany). A water/ethanol gradient system was run from 30 to 90% ethanol in 10 min followed by an isocratic phase (6 min) with 90% ethanol at a flow rate of 0.75 mL/min. 25 μL of the tissue extract or 100 μL of the supernatant of the medium were injected onto the column.

[2] = cited from earlier work
[3] = tested on: glucocorticoid receptor; conditions: in words, compared with des-CIC and BMP; cited from earlier work
[4] = parameters: method as in earlier work; conditions: cited from earlier work
[5] = parameters: method as in PMID 16566061; conditions: 14C-ciclesonide 25 μM, previous study; cited from earlier work
[6] = directly after inhalation of CIC 800 μg via MDI; cited from earlier work
[7] = after inhalation of 1 mg BDP via MDI (Aerobec)
[8] = after inhalation of 1600 μg BUD via Nebuhaler

Compound: CCCC1O[C@@H]2C[C@H]3[C@@H]4CCC5=CC(=O)C=C[C@]5(C)[C@H]4[C@@H](O)C[C@]3(C)[C@]2(C(=O)CO)O1 (some centres unmarked) [Budesonide, budesonide]
Metabolites detected in incubation medium ([1]; 25 μM, listed as BUD): no metabolites were detected
Relative drug amount in human lung tissue slices: Parent compound ([1]; 2 h, 25 μM): 72.2 ± 10.8 % of total UV areas
Total amount in human lung tissue slices: Parent compound ([1]; 2 h, 25 μM): 7.32 ± 0.99 nmol/vial
Relative drug amount in human lung tissue slices: Parent compound ([1]; 6 h, 25 μM): 64.9 ± 12.0 % of total UV areas
Total amount in human lung tissue slices: Parent compound ([1]; 6 h, 25 μM): 8.41 ± 2.15 nmol/vial
Relative drug amount in human lung tissue slices: Parent compound ([1]; 24 h, 25 μM): 53.6 ± 11.5 % of total UV areas
Total amount in human lung tissue slices: Parent compound ([1]; 24 h, 25 μM): 9.04 ± 1.14 nmol/vial
Affinity to the glucocorticoid receptor [3]: slightly lower
Mean concentration in blood plasma [2, 8]: 0.63 nmol/kg
Mean concentration in lung tissue obtained from resections [2, 8]: 5.5 nmol/kg

Compound: CCCCCCCCC=CCCCCCCCC(=O)OCC(=O)C12OC(C3CCCCC3)OC1CC1C3CCC4=CC(=O)C=CC4(C)C3C(O)CC12C (centres unmarked) [Des-CIC-oleate]
Lipophilicity relative to BUD-oleate ([4]; from logD 13.0 vs 12.3): about 5 fold

Compound: C[C@]12C=CC(=O)C=C1CC[C@@H]1[C@@H]2[C@@H](O)C[C@@]2(C)[C@H]1C[C@H]1O[C@@H](C3CCCCC3)O[C@]12C(=O)CO [des-CIC, desisobutyryl-ciclesonide]
Relative percentage of des-CIC at the end of the incubation period ([1]; incubation of CIC 25 μM, 24 h, present study): 32%
Relative percentage of des-CIC at the end of the incubation period [5]: 29%
Affinity to the glucocorticoid receptor [3]: high affinity
Amount detected in mouth rinsing solutions [6]: Only traces

Now from value to compound, other results behind:

Share of BDP-related material in tissue ([1]; 24 h): 26.6%
Share of BDP-related material in medium ([1]; 24 h): 8.4%
Amount of fatty acid esters formed, fold less than for BUD and des-CIC ([1]; lung tissue, esters formed by BMP (and/or BOH)): approximately 10 fold
Compound: CCC(=O)O[C@]1(C(=O)CO)[C@@H](C)C[C@H]2[C@@H]3CCC4=CC(=O)C=C[C@]4(C)[C@@]3(Cl)[C@@H](O)C[C@@]21C [BMP, beclomethasone-17-monopropionate]
Median concentration in bronchial tissue [2, 7]: 4.4 ng/g tissue
Median concentration in serum [2, 7]: 1.2 ng/mL

Share of BDP-related material in tissue ([1]; 24 h): 64.9%
Share of BDP-related material in medium ([1]; 24 h): 91.6%
Compound: C[C@H]1C[C@H]2[C@@H]3CCC4=CC(=O)C=C[C@]4(C)[C@@]3(Cl)[C@@H](O)C[C@]2(C)[C@@]1(O)C(=O)CO [BOH, beclomethasone]

Total amount in human lung tissue slices: Parent compound ([1]; 2 h, 25 μM): 2.19 ± 0.83 nmol/vial
Total amount in human lung tissue slices: Parent compound ([1]; 6 h, 25 μM): 0.72 ± 0.46 nmol/vial
Compound: CCC(=O)OCC(=O)[C@@]1(OC(=O)CC)[C@@H](C)C[C@H]2[C@@H]3CCC4=CC(=O)C=C[C@]4(C)[C@@]3(Cl)[C@@H](O)C[C@@]21C [Beclomethasone dipropionate, beclomethasone dipropionate]

Relative drug amount in medium: Parent compound ([1]; 2 h): 94.9 ± 1.3 % of total UV areas
Relative drug amount in medium: Parent compound ([1]; 6 h): 83.2 ± 5.5 % of total UV areas
Relative drug amount in medium: Parent compound ([1]; 24 h): 37.4 ± 7.8 % of total UV areas
Relative drug amount in medium: Parent compound ([1]; 24 h, listed as CIC): 37 % of total UV areas
Relative drug amount in human lung tissue slices: Parent compound ([1]; 2 h, 25 μM): 85.0 ± 3.4 % of total UV areas
Total amount in human lung tissue slices: Parent compound ([1]; 2 h, 25 μM): 6.46 ± 0.92 nmol/vial
Relative drug amount in human lung tissue slices: Parent compound ([1]; 6 h, 25 μM): 73.5 ± 4.7 % of total UV areas
Total amount in human lung tissue slices: Parent compound ([1]; 6 h, 25 μM): 8.86 ± 1.68 nmol/vial
Relative drug amount in human lung tissue slices: Parent compound ([1]; 24 h, 25 μM): 40.0 ± 7.6 % of total UV areas
Total amount in human lung tissue slices: Parent compound ([1]; 24 h, 25 μM): 9.53 ± 1.70 nmol/vial
Compound: CC(C)C(=O)OCC(=O)[C@@]12O[C@H](C3CCCCC3)O[C@@H]1C[C@H]1[C@@H]3CCC4=CC(=O)C=C[C@]4(C)[C@H]3[C@@H](O)C[C@@]12C [Ciclesonide, ciclesonide]
logD [4]: 6.1

Metabolites detected in incubation medium ([1]; 25 μM, listed as FP): no metabolites were detected
Metabolites detected in tissue extract / metabolic stability ([1]; tissue extract, 2, 6 and 24 h, 25 μM): no metabolites were detected
Relative drug amount in human lung tissue slices: Parent compound ([1]; 2 h, 25 μM): 100 ± 0.0 % of total UV areas
Total amount in human lung tissue slices: Parent compound ([1]; 2 h, 25 μM): 8.42 ± 1.26 nmol/vial
Relative drug amount in human lung tissue slices: Parent compound ([1]; 6 h, 25 μM): 100 ± 0.0 % of total UV areas
Total amount in human lung tissue slices: Parent compound ([1]; 6 h, 25 μM): 8.62 ± 2.20 nmol/vial
Relative drug amount in human lung tissue slices: Parent compound ([1]; 24 h, 25 μM): 100 ± 0.0 % of total UV areas
Total amount in human lung tissue slices: Parent compound ([1]; 24 h, 25 μM): 9.51 ± 2.22 nmol/vial
Compound: CCC(=O)O[C@]1(C(=O)SCF)[C@H](C)C[C@H]2[C@@H]3C[C@H](F)C4=CC(=O)C=C[C@]4(C)[C@@]3(F)[C@@H](O)C[C@@]21C [Fluticasone propionate, fluticasone propionate]
Affinity to the glucocorticoid receptor [3]: higher
Concentration in central lung tissue ([2]; after single inhalation of FP, in a few patients): more than 20 ng/g
Mean concentration in serum ([2]; after single inhalation of FP, same time as lung tissue sample): approximately 0.02 ng/mL
logD ([4]; pH 7.4): 3.7
